According to patent US20260337211A1, “IP5 SUBSTITUTED COMPOUNDS” (SANIFIT THERAPEUTICS, S.A., priority 2022, published 2026):
Counter-ions that a name gives are not always drawn.

assay: In vitro inhibition of calcium phosphate crystallization in human plasma (spectrophotometric, 550 nm); format: biochemical; details: 0-100 μM compound, 1.5 mM phosphate and 12.5 mM calcium, pH 7.4, 30 min at rt, slope between 6 and 24 min, 30 min, read-out: Relative Potency (EC50)
Experimental: The in vitro efficacy of the IP5 substituted compounds (e.g., Compounds 1 to 32) of the invention on the inhibition of calcium phosphate crystallization in human plasma samples was evaluated according to a spectrophotometric assay previously described in the art (Ferrer M, et al., Sci Rep 2017; 7:6858, doi:10.1038/s41598-017-07203-x).
A 96-well plate was employed. Plasma was spiked (1 volume of the IP5 substituted compounds of the invention per 19 volumes of plasma) with increasing concentrations of the derivatives in the range of 0-100 μM. Plasma was then centrifuged at 10,000 g at rt and subsequently mixed with a mixture of 5 mM hydrogen phosphate and 41.67 mM calcium to attain final concentrations of 1.5 mM phosphate and 12.5 mM calcium, respectively. All reagent solutions were filtered, and pH adjusted to 7.4.
Crystallization of calcium phosphate was monitored spectrophotometrically for 30 min at rt by measuring the increments in absorbance at 550 nm using the Biotek Powerwave XS Microplate spectrophotometer (BioTek Instruments, Inc., Winooski, VT, US). The plate was incubated at rt in an orbital shaker and absorbance measured every 3 min.
Plasma crystallization was assessed based on slope measurement in the linear range between 6 and 24 min from plots of increase in absorbance versus logarithm of time. The efficacy of different myo-inositol phosphates derivatives in preventing in vitro formation of calcium phosphate crystals was assessed in human plasma samples using the slopes obtained between 6- and 24-min. Inhibition of crystallization was measured by comparing the slopes of the control sample (blank plasma) with those of samples containing the inhibitor as shown below: […]

| EC50 | Compound |
| --- | --- |
| 5 to 10 µM | O=P(O)(O)OC1C(OCCCCCC(F)(F)F)C(OP(=O)(O)O)C(OP(=O)(O)O)C(OP(=O)(O)O)C1OP(=O)(O)O (racemic) [Compound 50, rac-1-O-(6,6,6-Trifluorohexyl)-myo-inositol-2,3,4,5,6-pentakis(phosphate) decasodium salt] |

same assay, conditions: 0-100 μM compound, 1.5 mM phosphate and 12.5 mM calcium, pH 7.4, 30 min at rt, slope between 6 and 24 min, read-out: Relative Potency (EC50)

| EC50 | Compound |
| --- | --- |
| 5 to 10 µM | rac-4-O-(5-Acetamidopentyl)-myo-inositol-1,2,3,5,6-pentakis(phosphate) decasodium salt [Compound 19] |
| 5 to 10 µM | COCCCCCCCCCO[C@H]1[C@@H](OP(=O)(O)O)[C@H](OP(=O)(O)O)[C@@H](OP(=O)(O)O)[C@H](OP(=O)(O)O)[C@H]1OP(=O)(O)O [Compound 8, 2-O-(9-Methoxynonyl)-myo-inositol-1,3,4,5,6-pentakis(phosphate) decasodium salt] |
| ≤ 5 µM | NC(=O)CCCCCOC1C(OP(=O)(O)O)C(OP(=O)(O)O)C(OP(=O)(O)O)C(OP(=O)(O)O)C1OP(=O)(O)O (racemic) [Compound 33, rac-4-O-(6-Amino-6-oxohexyl)-myo-inositol-1,2,3,5,6-pentakis(phosphate) decasodium salt] |
| 5 to 10 µM | 2-O-Propargyl-myo-inositol-1,3,4,5,6-pentakis(phosphate) decasodium salt [Compound 43] |
| 5 to 10 µM | rac-1-O-(5-(4-(Methoxymethyl)-1H-1,2,3-triazol-1-yl)pentyl)-myo-inositol-2,3,4,5,6-pentakis(phosphate) decasodium salt [Compound 52] |
| > 10 µM | 2-O-(5-Acetamidopentyl)-myo-inositol-1,3,4,5,6-pentakis(phosphate) decasodium salt [Compound 35] |
| ≤ 5 µM | rac-4-O-(6-Aminohexyl)-myo-inositol-1,2,3,5,6-pentakis(phosphate) decasodium salt [Compound 28] |
| ≤ 5 µM | rac-4-O-(6,6,6-Trifluorohexyl)-myo-inositol-1,2,3,5,6-pentakis(phosphate) decasodium salt [Compound 13] |
| 5 to 10 µM | 2-O-(5-Methoxypentyl)-myo-inositol-1,3,4,5,6-pentakis(phosphate) decasodium salt [Compound 7] |
| 5 to 10 µM | 5-O-Propyl-myo-inositol-1,2,3,4,6-pentakis(phosphate) decasodium salt [Compound 29] |
| ≤ 5 µM | 2-O-Pentyl-myo-inositol-1,3,4,5,6-pentakis(phosphate) decasodium salt [Compound 6] |
| > 10 µM | COCc1cn(CCCCCOC2C(OP(=O)(O)O)C(OP(=O)(O)O)C(OP(=O)(O)O)C(OP(=O)(O)O)C2OP(=O)(O)O)nn1 (centres unmarked) [Compound 46, 5-O-(5-(4-(Methoxymethyl)-1H-1,2,3-triazol-1-yl)pentyl)-myo-inositol-1,2,3,4,6-pentakis(phosphate) decasodium salt] |
| 5 to 10 µM | Cc1ccc(CCCOC2C(OP(=O)(O)O)C(OP(=O)(O)O)C(OP(=O)(O)O)C(OP(=O)(O)O)C2OP(=O)(O)O)cc1 (racemic) [Compound 11, rac-4-O-(3-(p-Tolyl)propyl)-myo-inositol-1,2,3,5,6-pentakis(phosphate) decasodium salt] |
